Assay results as given in patent publication US7105296B2, “Genes encoding Baeyer-Villiger monooxygenases” (E. I. du Pont de Nemours and Company, priority 2001, dated 2006).

Experiments:
Assay in all cases: chnB monooxygenase activity by NADPH oxidation at 340 nm
Type in all cases: biochemical
[1] = test system: Brevibacterium sp. HCU chnB1 monooxygenase; conditions: purified over-expressed enzyme; 1.25 mM substrate; pH 7.5; ND = No Activity Detected
Excerpt: (§1) Following amplification, the chnB gene fragments were cloned into pTrcHis-TOPO TA vectors with either an N-terminal tail or C-terminal tail, as provided by the vector sequence (N-terminal tail for Brevibacterium sp. HCU, Rhodococcus sp. phi1, Rhodococcus sp. phi2, and Arthrobacter sp. BP2 monooxygenases; C-terminal tail for Acinetobacter sp. SE19 and Acidovorax sp. CHX monooxygenases). These vectors were transformed into E. coli, with transformants grown in Luria-Bertani broth supplemented with ampicillin (100 ug/ml) and riboflavin (0.1 ug/ml) at 30° C. until the absorbance at 600 nm (A600) reached 0.5. When the A600 was reached, the temperature was shifted to 16° C.
(§2) The encoded monooxygenase sequences were expressed upon addition of IPTG to the culture media, 30 min after the temperature shift to 16° C. The cultures were grown further overnight (14 hrs) and harvested by centrifugation in a cold centrifuge. The cells were treated with lysozyme (100 mg/ml) for 30 min on ice and sonicated. Following sonication, cell extracts were centrifuged and the supernatant was equilibrated with Ni-NTA resin (Qiagen, Valencia, Calif.) for 1 hr at 4° C. Protein bound resin was washed successively with increasing concentrations of imidazole buffer until the protein of interest was released from the resin. The purified protein was concentrated and the buffer exchanged to remove the imidazole. The protein concentration was adjusted to 1 ug/ml.
(§3) Compounds were selected on the basis of previous observations by van der Werf (J. Biochem. 347:693–701 (2000)) and Miyamoto et al. (Biochimica et Biophysica Acta 1251: 115–124 (1995)) and by searches for the ketone substructure.
(§4) All compounds were obtained from Sigma-Aldrich with only two exceptions. Levoglucosenone was obtained from Toronto Research Chemicals, Inc. and dimethyl-2-piperidone was prepared according to U.S. Pat. No. 6,077,955. For enzyme assays all compounds were dissolved to a concentration of 0.1 M in methanol, with the exceptions of norcamphor (dissolved in ethyl acetate), cyclododecanone, cycltridecanone and cyclopentadecanone (dissolved in propanol), and levoglucosenone (dissolved with acetone).
(§5) The monooxygenase activity of each over-expressed enzyme was assayed spectrophotometrically at 340 nm by monitoring the oxidation of NADPH. Assays were performed in individual quartz cuvettes, with a pathlength of 1 cm. […] An Ultrospec 4000 (Pharmacia Biotech, Cambridge, England) was used to read the absorbance of the samples over a two to ten minute time period and the SWIFT (Pharmacia Biotech) program was used to calculate the slope of the reduction in absorbance over time. For the Brevibacterium sp. […] Monooxygenase activity of each over-expressed enzyme is shown in Table 5, with respect to each ketone substrate. The specific activity values listed are given in umol/min/mg. The notation “ND” refers to “No Activity Detected”.

[2] = test system: Acidovorax sp. CHX chnB monooxygenase; conditions: purified over-expressed enzyme; 1.25 mM substrate; pH 7.5; ND = No Activity Detected
Excerpt: as §1, §2, §3, §4, §5

[3] = test system: Rhodococcus sp. phi1 chnB monooxygenase; conditions: purified over-expressed enzyme; 1.25 mM substrate; pH 7.5; ND = No Activity Detected
Excerpt: as §1, §2, §3, §4, §5

[4] = target: T1, Acinetobacter sp. SE19 chnB monooxygenase (Acinetobacter sp., UniProt Q9F7E4); conditions: purified over-expressed enzyme; 1.25 mM substrate; pH 7.5; ND = No Activity Detected
T1 construct: expression in E. coli of isolated full length BVMO genes from Brevibacterium sp; HCU, Acinetobacter SE19; C-terminal tail provided by the pTrcHis-TOPO vector (C); made in house; host or cells: E. coli
Excerpt: as §1, §2, §3, §4, §5

[5] = test system: Arthrobacter sp. BP2 chnB monooxygenase; conditions: purified over-expressed enzyme; 1.25 mM substrate; pH 7.5; ND = No Activity Detected
Excerpt: as §1, §2, §3, §4, §5

[6] = test system: Rhodococcus sp. phi2 chnB monooxygenase; conditions: purified over-expressed enzyme; 1.25 mM substrate; pH 7.5; ND = No Activity Detected
Excerpt: as §1, §2, §3, §4, §5

[7] = test system: Brevibacterium sp. HCU chnB2 monooxygenase; conditions: purified over-expressed enzyme; 1.25 mM substrate; pH 7.5; rates multiplied by a factor of 3.25 to adjust for decrease in activity due to storage; ND = No Activity Detected
Excerpt: as §1, §2, §3, §4, §5

SMILES	Specific Activity of Monooxygenase Enzymes Against Various Ketone Substrates, sp. CHX chnB [2] [µmol/min/mg]	Specific Activity of Monooxygenase Enzymes Against Various Ketone Substrates, sp. phi1 chnB [3] [µmol/min/mg]	further results
C[S+](C)[O-] [dimethyl sulfoxide]			Specific Activity of Monooxygenase Enzymes Against Various Ketone Substrates, sp. HCU chnB1 [1]: 0.230 µmol/min/mg
CCCCCCCCCCCC(C)=O [2-tridecanone]	0.096	0.160	
O=C1CCCCCCCCCC1 [Cycloundecanone]	0.058		Specific Activity of Monooxygenase Enzymes Against Various Ketone Substrates, sp. SE19 chnB [4]: 0.064 µmol/min/mg; Specific Activity of Monooxygenase Enzymes Against Various Ketone Substrates, sp. BP2 chnB [5]: 0.064 µmol/min/mg; Specific Activity of Monooxygenase Enzymes Against Various Ketone Substrates, sp. phi2 chnB [6]: 0.051 µmol/min/mg
O=C1CCCCCCCCC1 [Cyclodecanone]	0.160	0.077	Specific Activity of Monooxygenase Enzymes Against Various Ketone Substrates, sp. SE19 chnB [4]: 0.320 µmol/min/mg
O=C1CCCCCCC1 [Cyclooctanone]	0.410		
O=C1CC2CC[C@H]1C2 [Norcamphor]			Specific Activity of Monooxygenase Enzymes Against Various Ketone Substrates, sp. HCU chnB1 [1]: 0.410 µmol/min/mg
O=C1CCCC(=O)C1 [1,3-cyclohexanedione]	0.032		
CCCCCCC(=O)CCCCCC [dihexyl ketone]		0.160	Specific Activity of Monooxygenase Enzymes Against Various Ketone Substrates, sp. HCU chnB2 [7]: 0.270 µmol/min/mg
O=C1CCCCC1c1ccccc1 (centres unmarked) [2-phenyl-cyclohexanone]			Specific Activity of Monooxygenase Enzymes Against Various Ketone Substrates, sp. phi2 chnB [6]: 0.730 µmol/min/mg
O=C1CCCCC1=O [1,2-cyclohexanedione]	0.096	0.083	Specific Activity of Monooxygenase Enzymes Against Various Ketone Substrates, sp. SE19 chnB [4]: 0.077 µmol/min/mg
O=C1CCCCCCCCCCC1 [Cyclododecanone]	0.051		
